Laboratory results from US20030153585A1, “Pharmaceutical preparations containing 2-pyrrolidone as the dissolving intermediary” (priority 2000, published 2003).
In brackets after ≈: the same amount, converted by molar mass.

Test: physchem
Conditions: water

solubility: 2 µg/mL (≈ 4.7 µM)
SMILES: COc1ccc(C(=O)N2CCCc3cc(C4=NNC(=O)SC4C)ccc32)cc1OC (stereo not shown) [thiadiazinone, 5-[1-(3,4-dimethoxybenzoyl)-1,2,3,4-tetrahydroquinolin-6-yl]-6-methyl-3,6-dihydro-1,3,4-thiadiazin-2-one]
